Laboratory results taken from patent US20180104224A1, “PHARMACEUTICAL COMPOSITIONS COMPRISING ANTIBACTERIAL AGENTS” (priority 2014, published 2018).

Columns and labels:
[1] = tested on: highly resistant strains of Pseudomonas aeruginosa; assay: MIC determination, all strains; format: cell-based; settings: highly resistant strains of P. aeruginosa
Procedure: (§1) The antibacterial activity of combinations according to the invention against resistant bacterial strains was investigated. Minimum Inhibitory Concentration (MIC) determination for the combinations according to invention was carried out in Muller Hinton Agar (MHA) (BD, USA) according to Clinical and Laboratory Standards Institute (CLSI) recommendations, (Clinical and Laboratory Standards Institute (CLSI), Performance Standards for Antimicrobial Susceptibility Testing, 20th Informational Supplement, M 100-S20, Volume 30, No. 1, 2010). In short, the test strains were adjusted to deliver about 10^4 CFU per spot with a multipoint inoculator (Applied Quality Services, UK). The plates were pored with MHA containing doubling concentration range of the test combinations according to invention. The plates were inoculated and were incubated at 35° C. for 18 hours.
The results on antibacterial activity of a carbapenem antibacterial agent selected from imipenem, meropenem, ertapenem and doripenem alone and in combination with Compound A or Compound B, against highly resistant strains of Pseudomonas aeruginosa are given in Table 1. […] For example, P. aeruginosa 2779 harbors resistance due to increased AmpC expression (300 times) and increased efflux; P. aeruginosa 1405 harbors resistance due to increased AmpC expression (600 times), reduced OprD expression and increased efflux; P. aeruginosa R 70 harbors resistance due to reduced OprD expression and increased efflux; and P. aeruginosa J 154 harbors resistance due to reduced OprD.

[2] = tested on: Pseudomonas aeruginosa R70; assay: Time kill study; format: cell-based; settings: P. aeruginosa R70; for effect on bacterial counts through out the duration of the study (in words): when used alone
Procedure: (§2) The synergistic killing effect of the combinations according to invention was studied by performing time kill studies. In a typical time kill study, the freshly grown cultures were diluted to the required cell density (initial starting inoculum) in Cation adjusted Muller Hinton broth medium (BD, USA). The antibacterial agents (either alone or in combination) at the required concentrations were added into the culture-containing medium. The samples were incubated under shaking condition (120 rpm) at 37° C. Enumeration of viable bacterial count was done every 2 hour by diluting in normal saline and plating on to the Tryptic Soya Agar plates (BD, USA). The plates were incubated for 24 hours to arrive at the viable bacterial count. The results are expressed in terms of Log10 CFU per ml. In general, the decrease of 1 Log10 CFU/ml, corresponds to 90% killing of bacteria.

[3] = tested on: Pseudomonas aeruginosa 1405; assay: Time kill study; format: cell-based; settings: P. aeruginosa 1405; for effect on bacterial counts through out the duration of the study (in words): when used alone
Procedure: as §2

P. aeruginosa 2779 = assay: MIC determination in Muller Hinton Agar (CLSI); format: cell-based, Pseudomonas aeruginosa; settings: for MIC (mcg/ml) of carbapenem in presence of [A] at 4 mcg/ml: in presence of Compound A at 4 mcg/ml; for MIC (mcg/ml) of carbapenem in presence of [B] at 4 mcg/ml: in presence of Compound B at 4 mcg/ml;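 on all read-outs here: MIC read as lowest concentration giving complete growth inhibition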
Procedure: as §1

P. aeruginosa 1405 = assay: MIC determination in Muller Hinton Agar (CLSI); format: cell-based, Pseudomonas aeruginosa; settings: for MIC (mcg/ml) of carbapenem in presence of [A] at 4 mcg/ml: in presence of Compound A at 4 mcg/ml; for MIC (mcg/ml) of carbapenem in presence of [B] at 4 mcg/ml: in presence of Compound B at 4 mcg/ml;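 on all read-outs here: MIC read as lowest concentration giving complete growth inhibition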
Procedure: as §1

P. aeruginosa J 154 = assay: MIC determination in Muller Hinton Agar (CLSI);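 on MIC (mcg/ml) of carbapenem in presence of [A] at 4 mcg/ml: MIC read as lowest concentration giving complete growth inhibition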;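 on MIC (mcg/ml) of carbapenem in presence of [B] at 4 mcg/ml: MIC read as lowest concentration giving complete growth inhibition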; format: cell-based, Pseudomonas aeruginosa; settings: for MIC: Pseudomonas aeruginosa, J154, agent alone, P. aeruginosa J 154 [Reduced OprD]; for MIC (mcg/ml) of carbapenem in presence of [A] at 4 mcg/ml: in presence of Compound A at 4 mcg/ml; for MIC (mcg/ml) of carbapenem in presence of [A] at 4 mcg/ml / MIC (mcg/ml) of carbapenem in presence of [B] at 4 mcg/ml: P. aeruginosa J 154; for MIC (mcg/ml) of carbapenem in presence of [B] at 4 mcg/ml: in presence of Compound B at 4 mcg/ml
Procedure: as §1

P. aeruginosa R 70 = assay: MIC determination in Muller Hinton Agar (CLSI); format: cell-based, Pseudomonas aeruginosa; settings: for MIC: Pseudomonas aeruginosa, R70, 18 h, agent alone, P. aeruginosa R 70 [Reduced OprD + increased efflux]; for MIC (mcg/ml) of carbapenem in presence of [A] at 4 mcg/ml: in presence of Compound A at 4 mcg/ml; for MIC (mcg/ml) of carbapenem in presence of [A] at 4 mcg/ml / MIC (mcg/ml) of carbapenem in presence of [B] at 4 mcg/ml: P. aeruginosa R 70; for MIC (mcg/ml) of carbapenem in presence of [B] at 4 mcg/ml: in presence of Compound B at 4 mcg/ml
Procedure: as §1

[4] = in presence of Compound A or Compound B
[5] = Table 4, single agent 16 mcg/ml
[6] = Table 5, single agent 16 mcg/ml
[7] = Table 2, single agent 16 mcg/ml
[8] = Table 3, single agent 16 mcg/ml

C[C@@H](O)[C@H]1C(=O)N2C(C(=O)O)=C(S[C@@H]3CN[C@H](CNS(N)(=O)=O)C3)[C@H](C)[C@H]12 [Doripenem, doripenem]
MIC values (in words) [1, 4]: decreased significantly
MIC values (in words) ([1]; when used alone): higher MIC values
effect on bacterial counts through out the duration of the study (in words) [2]: failed to reduce the bacterial counts
Bacterial count (Log10 CFU/ml) 0 hour ([2]; Table 4, single agent 4 mcg/ml): 6.62 Log10 CFU/ml
Bacterial count (Log10 CFU/ml) 2 hour ([2]; Table 4, single agent 4 mcg/ml): 5.74 Log10 CFU/ml
Bacterial count (Log10 CFU/ml) 4 hour ([2]; Table 4, single agent 4 mcg/ml): 5.65 Log10 CFU/ml
Bacterial count (Log10 CFU/ml) 6 hour ([2]; Table 4, single agent 4 mcg/ml): 5.65 Log10 CFU/ml
Bacterial count (Log10 CFU/ml) 0 hour ([2]; Table 5, single agent 4 mcg/ml): 6.44 Log10 CFU/ml
Bacterial count (Log10 CFU/ml) 2 hour ([2]; Table 5, single agent 4 mcg/ml): 5.74 Log10 CFU/ml
Bacterial count (Log10 CFU/ml) 4 hours ([2]; Table 5, single agent 4 mcg/ml): 5.65 Log10 CFU/ml
Bacterial count (Log10 CFU/ml) 6 hour ([2]; Table 5, single agent 4 mcg/ml): 5.65 Log10 CFU/ml
effect on bacterial counts through out the duration of the study (in words) [3]: failed to reduce the bacterial counts
Bacterial count (Log10 CFU/ml) 0 hour ([3]; Table 2, single agent 4 mcg/ml): 6.84 Log10 CFU/ml
Bacterial count (Log10 CFU/ml) 2 hour ([3]; Table 2, single agent 4 mcg/ml): 6.17 Log10 CFU/ml
Bacterial count (Log10 CFU/ml) 4 hour ([3]; Table 2, single agent 4 mcg/ml): 5.90 Log10 CFU/ml
Bacterial count (Log10 CFU/ml) 6 hour ([3]; Table 2, single agent 4 mcg/ml): 6.60 Log10 CFU/ml
Bacterial count (Log10 CFU/ml) 0 hour ([3]; Table 3, single agent 4 mcg/ml): 6.81 Log10 CFU/ml
Bacterial count (Log10 CFU/ml) 2 hour ([3]; Table 3, single agent 4 mcg/ml): 6.17 Log10 CFU/ml
Bacterial count (Log10 CFU/ml) 4 hour ([3]; Table 3, single agent 4 mcg/ml): 5.90 Log10 CFU/ml
Bacterial count (Log10 CFU/ml) 6 hour ([3]; Table 3, single agent 4 mcg/ml): 6.60 Log10 CFU/ml
MIC (mcg/ml) of carbapenem in presence of [A] at 4 mcg/ml (P. aeruginosa 2779): 0.12 µg/mL
MIC (mcg/ml) of carbapenem in presence of [B] at 4 mcg/ml (P. aeruginosa 2779): 0.06 µg/mL
MIC (mcg/ml) of carbapenem in presence of [A] at 4 mcg/ml (P. aeruginosa 1405): 4 µg/mL
MIC (mcg/ml) of carbapenem in presence of [B] at 4 mcg/ml (P. aeruginosa 1405): 4 µg/mL
MIC (P. aeruginosa J 154): 8 µg/mL
MIC (mcg/ml) of carbapenem in presence of [A] at 4 mcg/ml (P. aeruginosa J 154): 8 µg/mL
MIC (mcg/ml) of carbapenem in presence of [B] at 4 mcg/ml (P. aeruginosa J 154): 4 µg/mL
MIC (P. aeruginosa R 70): 16 µg/mL
MIC (mcg/ml) of carbapenem in presence of [A] at 4 mcg/ml (P. aeruginosa R 70): 8 µg/mL
MIC (mcg/ml) of carbapenem in presence of [B] at 4 mcg/ml (P. aeruginosa R 70): <0.12 µg/mL

C[C@@H](O)[C@H]1C(=O)N2C(C(=O)O)=C(S[C@@H]3CN[C@H](C(=O)Nc4cccc(C(=O)O)c4)C3)[C@H](C)[C@H]12 [Ertapenem, ertapenem]
MIC values (in words) [1, 4]: decreased significantly
MIC values (in words) ([1]; when used alone): higher MIC values
effect on bacterial counts through out the duration of the study (in words) [2]: failed to reduce the bacterial counts
Bacterial count (Log10 CFU/ml) 0 hour [2, 5]: 6.62 Log10 CFU/ml
Bacterial count (Log10 CFU/ml) 2 hour [2, 5]: 6.87 Log10 CFU/ml
Bacterial count (Log10 CFU/ml) 4 hour [2, 5]: 7.47 Log10 CFU/ml
Bacterial count (Log10 CFU/ml) 6 hour [2, 5]: 8.16 Log10 CFU/ml
Bacterial count (Log10 CFU/ml) 0 hour [2, 6]: 6.44 Log10 CFU/ml
Bacterial count (Log10 CFU/ml) 2 hour [2, 6]: 6.46 Log10 CFU/ml
Bacterial count (Log10 CFU/ml) 4 hours [2, 6]: 7.17 Log10 CFU/ml
Bacterial count (Log10 CFU/ml) 6 hour [2, 6]: 7.13 Log10 CFU/ml
effect on bacterial counts through out the duration of the study (in words) [3]: failed to reduce the bacterial counts
Bacterial count (Log10 CFU/ml) 0 hour [3, 7]: 6.84 Log10 CFU/ml
Bacterial count (Log10 CFU/ml) 2 hour [3, 7]: 6.90 Log10 CFU/ml
Bacterial count (Log10 CFU/ml) 4 hour [3, 7]: 7.87 Log10 CFU/ml
Bacterial count (Log10 CFU/ml) 6 hour [3, 7]: 7.65 Log10 CFU/ml
Bacterial count (Log10 CFU/ml) 0 hour [3, 8]: 6.81 Log10 CFU/ml
Bacterial count (Log10 CFU/ml) 2 hour [3, 8]: 6.90 Log10 CFU/ml
Bacterial count (Log10 CFU/ml) 4 hour [3, 8]: 7.87 Log10 CFU/ml
Bacterial count (Log10 CFU/ml) 6 hour [3, 8]: 7.65 Log10 CFU/ml
MIC (mcg/ml) of carbapenem in presence of [A] at 4 mcg/ml (P. aeruginosa 2779): 4 µg/mL
MIC (mcg/ml) of carbapenem in presence of [B] at 4 mcg/ml (P. aeruginosa 2779): 4 µg/mL
MIC (mcg/ml) of carbapenem in presence of [A] at 4 mcg/ml (P. aeruginosa 1405): 128 µg/mL
MIC (mcg/ml) of carbapenem in presence of [B] at 4 mcg/ml (P. aeruginosa 1405): 64 µg/mL
MIC (P. aeruginosa J 154): > 128 µg/mL
MIC (mcg/ml) of carbapenem in presence of [A] at 4 mcg/ml (P. aeruginosa J 154): >128 µg/mL
MIC (mcg/ml) of carbapenem in presence of [B] at 4 mcg/ml (P. aeruginosa J 154): 128 µg/mL
MIC (P. aeruginosa R 70): > 128 µg/mL
MIC (mcg/ml) of carbapenem in presence of [A] at 4 mcg/ml (P. aeruginosa R 70): >128 µg/mL
MIC (mcg/ml) of carbapenem in presence of [B] at 4 mcg/ml (P. aeruginosa R 70): ≤0.12 µg/mL
